Measurements as given in patent US20250352675A1, “CA-IX TARGETING FLUORESCENT PROBES” (BRACCO IMAGING S.P.A., priority 2022, published 2025).

Columns and labels:
CA-IX = target: T1, CA-IX (Homo sapiens, UniProt Q16790); assay: Cellular binding assessment by flow cytometry on CA-IX expressing HT-29 cells; conditions: 1 hour 30 min on ice, read-out: CA-IX receptor affinity (KD, to HT-29 cells)
T1 construct: host or cells: HT-29 human colorectal adenocarcinoma cells
Protocol: Human colon adenocarcinoma HT-29 cells (ATCC) used for the cellular binding experiments were cultured in McCoy's 5A medium (Sigma-Aldrich), supplemented with 10% HyClone Fetal Clone III (Euroclone), 2 mM L-glutamine (Sigma-Aldrich), 100 IU/mL penicillin, 0.1 mg/mL streptomycin, 0.25 μg/mL amphotericin B (Antibiotic-Antimycotic solution, Life Technologies) and cells were grown at 37° C. in humidified atmosphere enriched with 5% CO2. DPBS without MgCl2 and CaCl2 (Sigma-Aldrich) was used for cell rinsing.
Indeed, by using the anti-human CA-IX antibody MAB2188 (R&D Systems) and the DAKO […], according to the instruction of the datasheet, HT-29 cells were estimated to express about 150,000 CA-IX molecules per cell. Thus, HT-29 cells were used to measure the binding of all compounds to CA-IX, expressed in its physiological environment at the cell-surface. Briefly, HT-29 cells were detached with StemPro® Accutase® Cell Dissociation Reagent (Life Technologies), collected in DPBS and counted. At least 2·10^5 cells were placed in 1.5 mL tubes on ice and resuspended in 50-100 μL of cold FACS buffer (eBioscience™ Flow Cytometry Staining Buffer, Invitrogen) containing scalar concentrations of compounds (compound 1: range 1-5 μM; compounds 2 and 3: range 0-20 μM). After incubation (1 hour and 30 min on ice in the dark), cells were rinsed 3 times in 300 μL of cold FACS buffer by centrifugation (5 min, 4° C., 350 RCF), discarding the supernatant. Cell pellets were then resuspended in 200 μL of cold FACS buffer (or in a suitable volume in order to obtain no more than 1000 recorded events per μL during FACS analysis) and analyzed with the flow cytometer Accuri™ C6 (BD Biosciences). The mean cell-associated fluorescence was plotted against concentration and the dissociation constant at equilibrium (Ko) was inferred by mathematical fitting with GraphPad Prism v.9 software, according to the following equation: […]
where Bmax is the maximum specific binding in the same units as Y. KD is the equilibrium dissociation constant, in the same units as X. NS is the slope of nonspecific binding in Y units divided by X units. Background is the amount of nonspecific binding with no added Compound.
All compounds were analyzed in at least three independent experiments. The calculated KD are summarized in Table III and compared with the one obtained for HF-1.

HT-29 cells = assay: Receptor-mediated uptake: competition with 100x excess of acetazolamide in HT-29 cells; assay type: cell-based, human; conditions: 1 μM, 2 hours at 37° C., relative to uptake without acetazolamide
Protocol: The HT-29 cells were used as in vitro model to assess the cell uptake of the CA-IX targeting compounds of the invention, more specifically whether cellular internalization of compounds occurred after targeting to cell-surface-expressed CA-IX. Cellular uptake was evaluated by flow cytometry. […] Treatment with unconjugated dyes were used to estimate non-specific CA-IX-independent cellular uptake. Cell incubation on ice was used to discriminate the cell-associated fluorescence deriving from internalized and cell-surface associated compounds (37° C.), from the one deriving from solely cell surface-bound compounds (on ice). Treatment of HT-29 cells, grown in 24-well plates, was performed by rinsing cells in DPBS and then by incubation with treatment solutions, for the indicated times and temperatures, in the dark. At the end of treatment, cells were rinsed 3 times with cold DPBS, and detached from the plate with StemPro® Accutase® Cell Dissociation Reagent, collected in 1.5 mL tubes after dilution in DPBS and centrifuged (5 minutes, 350 RCF, 4° C.). The supernatant was then discarded, and the cell pellet was resuspended in 300 μL of cold FACS buffer, or in a suitable volume in order to obtain no more than 1,000 recorded events per μL during FACS analysis. Samples were analyzed with the flow cytometer Accuri™ C6 (BD Biosciences) using the 640 nm excitation laser and the emission 780/60 nm filter. At least 15000 valid events were collected for each sample. At the end of analysis, each sample was plotted in histograms, being X the fluorescence intensity (FL4-A) in log scale and Y the counts. Usually, a gaussian distribution of the cell population was observed. The data retrieved were the mean fluorescence of each population, considered the fluorescence intensity value of the corresponding sample. Independent replicates were performed for each experimental condition. Normalized cell-associated fluorescence was calculated with the following formula: […]

HT-29 colorectal tumor = assay: In vivo optical imaging of HT-29 tumor bearing mice (tumor-to-background ratio); conditions: 1 nmol/mouse intravenous, 24 hours after administration; tumor vs hind limb muscle
Protocol: HT-29 cells were collected and washed once with serum-free medium. Five million HT-29 cells were suspended in 0.1 mL serum-free medium and injected subcutaneously in the right flank of 5 weeks old mice. Tumor development was followed by caliper measurement twice a week, from 7 days after inoculation. Tumor volume was calculated according to the formula: (L*W2)/2, where L and W are the maximum length and width of the tumor.
Optical Imaging experiments on HT-29 tumor bearing animals were performed after administration of HF-1, as reference compound, and compounds 1, 2 and 3, all at a dose of 1 nmol/mouse in an administration volume of 0.1 mL (corresponding to about 5 mL/kg, considering a 20 g-mouse) at an injection rate of about 1 mL/min, by the IVIS Spectrum system when the tumor reached at least 200 mm^3 volume.
For each group, in vivo OI experiments were performed at 0.5, 1, 2, 3, 4, 6 and 24 hours after intravenous administration of the fluorescent compounds. During imaging experiments animals were maintained under gaseous anesthesia. Regions of interest (ROIs) were drawn on the tumor and on a reference background healthy region (hind limb muscle) of the mouse for each fluorescence image at every time point to evaluate signal intensity in the tissues (expressed as Average Radiant Efficiency). The ratio between the fluorescence signal in the tumor and in the background healthy tissue (tumor-to-background ratio, TBR) was then calculated to assess the contrast.
All the compounds of the invention and HF-1 were tested at a dose of 1 nmol/mouse.

HT-29 tumor = assay: Ex vivo tumor-to-background ratio in excised HT-29 tumors; design: species or system mice; conditions: 1 nmol/mouse, samples collected 24 hours after administration; tumor vs hind limb muscle
Protocol: The ex vivo biodistribution of the representative compounds 1, 2 and 3 and of the reference compound HF-1 (at 1 nmol/mouse) was evaluated in HT-29 excised tumors and tissues at the end of the in vivo OI sessions 24 hours post intravenous administration. At the end of the in vivo experiment, animals were euthanized by overdose of gaseous anesthesia followed by cervical dislocation. Tumor tissue, muscle, and other organs of interest were removed for ex vivo fluorescent signal measurements. The fluorescence signal intensity was measured by the IVIS Spectrum system. Regions of interest (ROIs) were drawn around each organ and tumor using the Living Image Software (PerkinElmer) and evaluating signal intensity in the tissues (expressed as Average Radiant Efficiency). The ratio between the fluorescence signal in the organs and tumor was then calculated to assess the contrast to hind limb muscle (representing the background).

[1] = Optical characterization (excitation/emission maxima, molar extinction coefficient); assay type: physicochemical; conditions: in water

Kd (CA-IX) [nM]	molar extinction coefficient (ε) [1] [M⁻¹ cm⁻¹]	SMILES	% uptake in presence of 100x excess of acetazolamide (HT-29 cells) [%]	in vivo TBR (mean ± SD) (HT-29 colorectal tumor)	ex vivo TBR ± SD, HT-29 tumor (HT-29 tumor)
68 ± 4	240000	CC1(C)C(/C=C/C=C/C=C/C=C2/N(CCCCS(=O)(=O)O)c3ccc(C(=O)NC[C@H](O)[C@@H](O)[C@H](O)[C@H](O)CO)cc3C2(C)C)=[N+](CCCCS(=O)(=O)[O-])c2ccc(C(=O)NCCCCCCCC(=O)Nc3nnc(S(N)(=O)=O)s3)cc21 [Compound 1]	16.4 ± 1.9	5.9 ± 1.2	16.4 ± 4.4
54 ± 3	260000	CC1(C)C(/C=C/C=C/C=C/C=C2/N(CCCCS(=O)(=O)O)c3ccc(S(=O)(=O)O)cc3C2(C)C)=[N+](CCCCS(=O)(=O)[O-])c2ccc(C(=O)NCCCCCCCC(=O)Nc3nnc(S(N)(=O)=O)s3)cc21 [Compound 2]	28.4 ± 2.2	5.1 ± 1.9	15.2 ± 5.9
62 ± 4	240000	CC1(C)C(/C=C/C2=C(Oc3ccc(S(=O)(=O)O)cc3)C(=C/C=C3/N(CCCCS(=O)(=O)O)c4ccc(S(=O)(=O)O)cc4C3(C)C)/CCC2)=[N+](CCCCS(=O)(=O)[O-])c2ccc(C(=O)NCCCCCCCC(=O)Nc3nnc(S(N)(=O)=O)s3)cc21 [Compound 3]	18.1 ± 11.5	2.2 ± 0.6	5.8 ± 2.2
